Measured values reported in ChEMBL document CHEMBL3132769, “Fragment growing to retain or alter the selectivity of anchored kinase hinge-binding fragments” (Medchemcomm, 2014).

Experiments:
[1] = target: Fibroblast growth factor receptor 2 (Homo sapiens) (UniProt P21802); assay: Inhibition of human FGFR2 catalytic domain expressed in baculovirus assessed as substrate phosphorylation using fluorescence-labelled peptides as substrate at 0.2 uM after 90 mins by microfluidic peptide phosphorylation assay
Fibroblast growth factor receptor 2 (Homo sapiens), sequence (P21802 22-821 limits assumed): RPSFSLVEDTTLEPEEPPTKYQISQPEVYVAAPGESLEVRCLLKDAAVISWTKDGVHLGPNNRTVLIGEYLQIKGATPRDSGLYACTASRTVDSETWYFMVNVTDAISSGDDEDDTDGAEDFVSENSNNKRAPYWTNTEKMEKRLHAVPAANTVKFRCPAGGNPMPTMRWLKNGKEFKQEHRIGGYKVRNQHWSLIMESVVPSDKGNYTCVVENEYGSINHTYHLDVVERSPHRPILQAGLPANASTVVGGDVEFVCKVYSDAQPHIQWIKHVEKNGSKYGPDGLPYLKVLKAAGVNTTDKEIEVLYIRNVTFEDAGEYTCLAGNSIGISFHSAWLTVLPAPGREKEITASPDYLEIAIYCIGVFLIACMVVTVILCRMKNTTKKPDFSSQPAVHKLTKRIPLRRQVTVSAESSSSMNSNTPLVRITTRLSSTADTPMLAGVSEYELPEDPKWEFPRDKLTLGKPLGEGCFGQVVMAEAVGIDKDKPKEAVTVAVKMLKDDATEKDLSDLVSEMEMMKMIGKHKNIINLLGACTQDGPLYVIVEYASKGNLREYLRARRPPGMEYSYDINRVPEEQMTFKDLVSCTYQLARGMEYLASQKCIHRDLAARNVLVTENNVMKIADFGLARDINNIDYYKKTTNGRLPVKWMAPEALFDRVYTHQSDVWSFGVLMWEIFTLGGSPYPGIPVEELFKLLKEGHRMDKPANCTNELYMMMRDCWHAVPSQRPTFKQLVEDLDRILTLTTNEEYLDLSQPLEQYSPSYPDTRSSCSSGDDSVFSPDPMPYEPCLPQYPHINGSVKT

[2] = target: T1, Serine/threonine-protein kinase DCLK2 (Homo sapiens) (UniProt Q8N568); assay: Inhibition of human full length DCAMKL2 expressed in baculovirus assessed as substrate phosphorylation using fluorescence-labelled peptides as substrate at 420 uM after 90 mins by microfluidic peptide phosphorylation assay
T1 sequence (whole entry): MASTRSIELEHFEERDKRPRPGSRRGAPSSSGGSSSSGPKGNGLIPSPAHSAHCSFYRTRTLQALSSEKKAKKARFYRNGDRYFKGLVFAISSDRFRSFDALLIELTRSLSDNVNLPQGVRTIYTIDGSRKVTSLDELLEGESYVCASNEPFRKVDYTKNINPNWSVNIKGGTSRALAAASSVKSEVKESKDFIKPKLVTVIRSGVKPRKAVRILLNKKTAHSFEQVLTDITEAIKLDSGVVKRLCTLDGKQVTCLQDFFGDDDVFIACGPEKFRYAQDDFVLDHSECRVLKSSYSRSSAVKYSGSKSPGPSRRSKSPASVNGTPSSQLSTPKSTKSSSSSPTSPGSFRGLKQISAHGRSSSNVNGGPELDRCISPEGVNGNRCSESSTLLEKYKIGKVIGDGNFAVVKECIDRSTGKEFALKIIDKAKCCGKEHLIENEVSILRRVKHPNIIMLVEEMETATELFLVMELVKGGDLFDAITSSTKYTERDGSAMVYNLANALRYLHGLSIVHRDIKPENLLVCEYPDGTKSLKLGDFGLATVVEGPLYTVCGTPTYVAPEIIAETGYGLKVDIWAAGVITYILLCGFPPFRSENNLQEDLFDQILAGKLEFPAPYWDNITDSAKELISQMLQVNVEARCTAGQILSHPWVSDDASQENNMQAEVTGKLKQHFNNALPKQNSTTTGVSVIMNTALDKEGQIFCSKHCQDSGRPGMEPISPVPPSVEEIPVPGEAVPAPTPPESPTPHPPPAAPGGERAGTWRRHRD

[3] = target: T2, Mitogen-activated protein kinase 13 (Homo sapiens) (UniProt O15264); assay: Inhibition of human full length p38 delta expressed in Escherichia coli cell assessed as substrate phosphorylation using fluorescence-labelled peptides as substrate at 2 uM after 90 mins by microfluidic peptide phosphorylation assay
T2 sequence (whole entry): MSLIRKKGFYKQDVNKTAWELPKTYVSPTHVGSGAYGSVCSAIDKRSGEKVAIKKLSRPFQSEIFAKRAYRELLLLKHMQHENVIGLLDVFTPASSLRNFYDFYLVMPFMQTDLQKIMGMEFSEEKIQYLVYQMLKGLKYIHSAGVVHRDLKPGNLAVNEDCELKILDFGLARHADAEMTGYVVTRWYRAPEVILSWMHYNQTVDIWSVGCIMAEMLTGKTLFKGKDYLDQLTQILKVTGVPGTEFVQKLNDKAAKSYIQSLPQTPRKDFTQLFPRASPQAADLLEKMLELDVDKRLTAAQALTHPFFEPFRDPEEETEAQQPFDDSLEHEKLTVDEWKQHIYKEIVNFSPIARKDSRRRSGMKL

[4] = target: T3, cGMP-dependent protein kinase 1 (Homo sapiens) (UniProt Q13976); details: 0.1 uM
T3 sequence (whole entry): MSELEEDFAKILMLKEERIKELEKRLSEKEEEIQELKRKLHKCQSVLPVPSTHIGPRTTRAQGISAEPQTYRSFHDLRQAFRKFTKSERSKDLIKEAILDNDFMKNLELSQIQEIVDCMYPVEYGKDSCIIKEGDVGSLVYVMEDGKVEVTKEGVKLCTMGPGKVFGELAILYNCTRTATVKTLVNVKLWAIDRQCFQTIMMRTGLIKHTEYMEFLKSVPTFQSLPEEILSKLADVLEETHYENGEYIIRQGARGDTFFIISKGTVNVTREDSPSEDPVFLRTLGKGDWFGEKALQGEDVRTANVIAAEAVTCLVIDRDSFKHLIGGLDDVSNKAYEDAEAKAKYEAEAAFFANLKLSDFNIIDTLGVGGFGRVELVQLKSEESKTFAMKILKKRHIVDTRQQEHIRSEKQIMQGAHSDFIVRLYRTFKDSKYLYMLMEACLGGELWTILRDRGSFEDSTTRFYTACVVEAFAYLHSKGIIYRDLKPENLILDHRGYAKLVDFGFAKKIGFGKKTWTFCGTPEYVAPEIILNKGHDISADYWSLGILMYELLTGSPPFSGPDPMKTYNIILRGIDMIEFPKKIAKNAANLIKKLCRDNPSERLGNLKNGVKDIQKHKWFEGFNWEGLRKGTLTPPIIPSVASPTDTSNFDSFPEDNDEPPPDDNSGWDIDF
Description: Inhibition of human full length PKG-1beta expressed in baculovirus assessed as substrate phosphorylation using fluorescence-labelled peptides as substrate at 0.1 uM after 90 mins by microfluidic peptide phosphorylation assay

[5] = test system: Tyrosine-protein kinase ABL1 (Homo sapiens), P00519 [T315I]; assay: Inhibition of human truncated ABL T315I mutant expressed in baculovirus assessed as substrate phosphorylation using fluorescence-labelled peptides as substrate at 95 uM after 90 mins by microfluidic peptide phosphorylation assay
[6] = target: Proto-oncogene tyrosine-protein kinase Src (Homo sapiens) (UniProt P12931); assay: Inhibition of human full length SRC expressed in baculovirus assessed as substrate phosphorylation using fluorescence-labelled peptides as substrate at 8 uM after 90 mins by microfluidic peptide phosphorylation assay
Proto-oncogene tyrosine-protein kinase Src (Homo sapiens), sequence (P12931 2-536 limits assumed): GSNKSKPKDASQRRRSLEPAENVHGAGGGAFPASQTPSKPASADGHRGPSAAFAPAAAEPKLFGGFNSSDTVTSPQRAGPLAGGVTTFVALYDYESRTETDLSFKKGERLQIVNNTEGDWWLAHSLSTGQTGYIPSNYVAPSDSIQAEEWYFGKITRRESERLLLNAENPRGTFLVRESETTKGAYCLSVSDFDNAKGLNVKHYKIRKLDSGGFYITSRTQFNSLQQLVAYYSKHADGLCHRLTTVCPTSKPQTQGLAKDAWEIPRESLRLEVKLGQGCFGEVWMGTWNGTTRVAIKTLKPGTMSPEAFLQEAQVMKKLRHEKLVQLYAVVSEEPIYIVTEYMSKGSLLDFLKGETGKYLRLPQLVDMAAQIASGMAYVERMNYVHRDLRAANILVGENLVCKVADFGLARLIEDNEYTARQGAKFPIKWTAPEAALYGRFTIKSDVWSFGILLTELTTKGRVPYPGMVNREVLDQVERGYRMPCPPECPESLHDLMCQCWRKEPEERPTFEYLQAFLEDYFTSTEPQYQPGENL

[7] = target: Tyrosine-protein kinase HCK (Homo sapiens) (UniProt P08631); assay: Inhibition of human HCK catalytic domain expressed in baculovirus assessed as substrate phosphorylation using fluorescence-labelled peptides as substrate at 70 uM after 90 mins by microfluidic peptide phosphorylation assay
Tyrosine-protein kinase HCK (Homo sapiens), sequence (P08631 2-526 limits assumed): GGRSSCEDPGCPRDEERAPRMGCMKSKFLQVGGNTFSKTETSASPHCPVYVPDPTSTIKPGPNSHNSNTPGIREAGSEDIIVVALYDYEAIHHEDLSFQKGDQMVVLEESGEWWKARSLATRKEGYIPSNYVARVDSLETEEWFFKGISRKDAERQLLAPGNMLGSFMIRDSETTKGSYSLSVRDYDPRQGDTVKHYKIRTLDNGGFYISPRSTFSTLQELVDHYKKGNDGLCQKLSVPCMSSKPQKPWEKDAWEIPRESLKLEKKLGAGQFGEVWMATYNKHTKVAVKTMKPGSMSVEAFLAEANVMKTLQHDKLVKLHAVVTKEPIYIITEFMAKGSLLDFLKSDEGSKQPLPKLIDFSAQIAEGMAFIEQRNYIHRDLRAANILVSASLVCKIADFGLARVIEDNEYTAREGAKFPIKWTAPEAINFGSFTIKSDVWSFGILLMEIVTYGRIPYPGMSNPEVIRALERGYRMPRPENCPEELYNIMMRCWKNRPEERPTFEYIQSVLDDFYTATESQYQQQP

[8] = target: Protein kinase C theta type (Homo sapiens) (UniProt Q04759); assay: Inhibition of human truncated PKC theta expressed in baculovirus assessed as substrate phosphorylation using fluorescence-labelled peptides as substrate at 1000 uM after 90 mins by microfluidic peptide phosphorylation assay
Protein kinase C theta type (Homo sapiens), sequence (Q04759 whole entry, looked up, the tested form may be a part): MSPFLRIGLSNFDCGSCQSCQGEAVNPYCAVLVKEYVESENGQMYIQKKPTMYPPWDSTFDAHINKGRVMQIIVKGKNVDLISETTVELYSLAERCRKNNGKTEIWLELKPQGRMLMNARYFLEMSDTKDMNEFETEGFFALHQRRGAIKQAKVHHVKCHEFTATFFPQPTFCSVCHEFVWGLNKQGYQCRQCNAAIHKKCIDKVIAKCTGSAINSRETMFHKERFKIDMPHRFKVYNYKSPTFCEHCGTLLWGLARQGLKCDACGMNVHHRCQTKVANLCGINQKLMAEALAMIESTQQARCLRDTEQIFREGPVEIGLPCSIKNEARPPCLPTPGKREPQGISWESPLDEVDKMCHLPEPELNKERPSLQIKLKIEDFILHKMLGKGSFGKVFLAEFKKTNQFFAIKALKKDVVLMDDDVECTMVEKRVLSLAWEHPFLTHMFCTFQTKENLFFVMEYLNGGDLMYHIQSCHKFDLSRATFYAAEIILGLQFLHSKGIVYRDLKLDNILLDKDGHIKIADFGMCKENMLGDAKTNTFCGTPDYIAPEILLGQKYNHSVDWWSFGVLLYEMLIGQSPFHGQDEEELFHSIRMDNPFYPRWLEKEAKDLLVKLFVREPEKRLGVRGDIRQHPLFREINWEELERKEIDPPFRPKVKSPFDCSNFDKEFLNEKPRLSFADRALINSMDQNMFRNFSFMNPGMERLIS

[9] = target: Platelet-derived growth factor receptor alpha (Homo sapiens) (UniProt P16234); assay: Inhibition of human PDGFR alpha catalytic domain expressed in baculovirus assessed as substrate phosphorylation using fluorescence-labelled peptides as substrate at 1000 uM after 90 mins by microfluidic peptide phosphorylation assay
Platelet-derived growth factor receptor alpha (Homo sapiens), sequence (P16234 whole entry, the tested form may be a part): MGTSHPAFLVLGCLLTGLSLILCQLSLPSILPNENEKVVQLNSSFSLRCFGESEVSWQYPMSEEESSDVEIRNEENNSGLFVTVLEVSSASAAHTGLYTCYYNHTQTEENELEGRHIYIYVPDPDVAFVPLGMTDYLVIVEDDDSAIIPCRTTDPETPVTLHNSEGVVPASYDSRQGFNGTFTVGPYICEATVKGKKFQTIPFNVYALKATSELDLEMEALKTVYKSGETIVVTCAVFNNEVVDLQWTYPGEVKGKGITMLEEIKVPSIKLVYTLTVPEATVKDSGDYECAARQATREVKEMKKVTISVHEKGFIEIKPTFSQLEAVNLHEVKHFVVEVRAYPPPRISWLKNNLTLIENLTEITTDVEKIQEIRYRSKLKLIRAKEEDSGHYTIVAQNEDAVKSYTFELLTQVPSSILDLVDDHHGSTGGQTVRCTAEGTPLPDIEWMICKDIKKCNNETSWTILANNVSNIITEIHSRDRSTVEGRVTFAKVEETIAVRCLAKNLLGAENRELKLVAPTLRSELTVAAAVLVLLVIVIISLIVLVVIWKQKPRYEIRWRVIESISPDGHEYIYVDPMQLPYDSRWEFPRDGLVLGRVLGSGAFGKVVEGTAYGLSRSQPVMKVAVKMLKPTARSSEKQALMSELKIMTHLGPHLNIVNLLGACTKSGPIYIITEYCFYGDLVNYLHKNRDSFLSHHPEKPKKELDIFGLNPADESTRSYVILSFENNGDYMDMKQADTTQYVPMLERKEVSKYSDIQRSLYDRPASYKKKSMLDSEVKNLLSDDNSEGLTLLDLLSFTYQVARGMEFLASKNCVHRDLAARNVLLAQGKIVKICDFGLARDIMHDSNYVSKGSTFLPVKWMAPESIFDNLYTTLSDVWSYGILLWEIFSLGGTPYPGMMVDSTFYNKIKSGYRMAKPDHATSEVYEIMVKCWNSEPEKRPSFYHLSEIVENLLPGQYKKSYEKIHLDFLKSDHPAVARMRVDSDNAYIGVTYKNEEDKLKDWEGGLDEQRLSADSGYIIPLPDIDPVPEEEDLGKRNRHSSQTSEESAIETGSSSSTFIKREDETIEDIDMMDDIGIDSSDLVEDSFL

Question: With Clc1ccc(C2(c3ccc(-c4ncnc5[nH]cnc45)cc3)CCNCC2)cc1 as the compound, how does the inhibition [1] read?
Answer: The inhibition was 4%.

Question: Which inhibition [2] does the source give for c1nc(N2CCOCC2)c2nc[nH]c2n1 here?
Answer: Its inhibition is 41.5%.

Question: How did the inhibition [3] turn out when NC1CCN(c2ncnc3[nH]ccc23)CC1 was run?
Answer: Its inhibition is 8%.

Question: Which inhibition [4] does the source give for C[C@H](CN(C)C)Oc1nc(Nc2cc3cccc(Cl)c3cn2)cnc1C#N here?
Answer: Its inhibition is 0%.

Question: NCCc1ccc(-c2ncnc3[nH]cnc23)cc1 was tested. Which inhibition [5] did it give?
Answer: The inhibition was 53%.

Question: Which inhibition [6] does the source give for NCC1CCN(c2ncnc3[nH]ccc23)CC1 here?
Answer: The inhibition was 1.5%.

Question: With CNCc1ccc(-c2ncnc3[nH]cnc23)cc1 as the compound, how does the inhibition [7] read?
Answer: Its inhibition is 18.5%.

Question: With c1cnc2[nH]ccc2c1 as the compound, how does the inhibition [8] read?
Answer: The inhibition was 29%.

Question: What about the inhibition [9] of the same compound?
Answer: Its inhibition is 31.5%.
